{
  "source": "patent US20240033272A1",
  "about": "“USE OF C[…] THE TREATMENT OF SEIZURES ASSOCIATED WITH HERPES SIMPLEX VIRUS” (GW Research Limited, priority 2020, published 2024)",
  "system": "patients diagnosed with herpes simplex virus (seizures associated with herpes simplex virus)",
  "assay": "Open label, expanded-access program: seizure frequency recorded by caregivers in a diary, change relative to baseline",
  "format": "in vivo, human",
  "set-up": "Reduction in myoclonic seizures over the treatment period / Reduction in absence seizures over the treatment period / Reduction in focal seizures with impairment over the treatment period / Reduction in tonic-clonic seizures over the treatment period / Reduction in atonic seizures over the treatment period / Reduction in tonic seizures over the treatment period: concentration or dose not given beside the values; Seizure frequency, tonic-clonic / Seizure frequency, myoclonic / Seizure frequency, absence / Seizure frequency, focal with impairment / Seizure frequency, tonic / Seizure frequency, focal without impairment / Seizure frequency, atonic: unit not given here",
  "conditions": "for Seizure frequency, focal with impairment: baseline 14.0; for Seizure frequency, absence: baseline 28.0; for Seizure frequency, myoclonic: baseline 59.0; for Seizure frequency, tonic: baseline 24.0",
  "method": "Subjects were required to be on one or more AEDs at stable doses for a minimum of two weeks prior to baseline and to have stable vagus nerve stimulation (VNS) settings and ketogenic diet ratios for a minimum of four weeks prior to baseline.\nModifications were made to concomitant AEDs as per clinical indication.\nSeizure frequency, intensity, and duration were recorded by caregivers in a diary during a baseline period of at least 28 days. Changes in seizure frequency relative to baseline were calculated after at least 2 weeks and at defined timepoints of treatment.\nPatients may be defined as responders if they had more than 50% reduction in seizure frequency compared to baseline. The percent change in seizure frequency was calculated as follows: […]\nThe percent change of seizure frequency may be calculated for any time interval where seizure number has been recorded. For the purpose of this example the percent change of seizure frequency for the end of the treatment period was calculated as follows: […]",
  "key": {"[1]": {"conditions": "Patient 4, treated for 24 weeks, vs baseline"}, "[2]": {"conditions": "Patient 5, 4 weeks, CBD 20.0 mg/kg/day"}, "[3]": {"conditions": "Patient 5, 8 weeks, CBD 25.0 mg/kg/day"}, "[4]": {"conditions": "Patient 5, 12 weeks, CBD 25.0 mg/kg/day"}, "[5]": {"conditions": "Patient 5, 16 weeks, CBD 25.0 mg/kg/day"}, "[6]": {"conditions": "Patient 5, 24 weeks, CBD 30.0 mg/kg/day"}, "[7]": {"conditions": "Patient 5, 36 weeks, CBD 40.0 mg/kg/day"}, "[8]": {"conditions": "Patient 5, 60 weeks, CBD 50.0 mg/kg/day"}, "[9]": {"conditions": "Patient 5, 72 weeks, CBD 50.0 mg/kg/day"}, "[10]": {"conditions": "Patient 5, 84 weeks, CBD 30.0 mg/kg/day"}, "[11]": {"conditions": "Patient 5, 96 weeks, CBD 45.0 mg/kg/day"}, "[12]": {"conditions": "Patient 5, 108 weeks, CBD 45.0 mg/kg/day"}, "[13]": {"conditions": "Patient 5, 120 weeks, CBD 45.0 mg/kg/day"}, "[14]": {"conditions": "Patient 5, 132 weeks, CBD 45.0 mg/kg/day"}, "[15]": {"conditions": "Patient 5, 144 weeks, CBD 45.0 mg/kg/day"}, "[16]": {"conditions": "Patient 5, treated for 144 weeks, vs baseline"}},
  "note": "Entries after “also recorded” stand apart in the source; their conditions may differ.",
  "data": [
    {"compound": "C=C(C)[C@@H]1CCC(C)=C[C@H]1c1c(O)cc(CCCCC)cc1O", "note": "[CBD, cannabidiol]", "values": [
      {"measurement": "Seizure frequency, tonic-clonic", "setting": "Patient 4, 16 weeks, CBD 15.0 mg/kg/day, baseline 10.0", "value": 0.7},
      {"measurement": "Seizure frequency, focal with impairment", "setting": "Patient 4, 16 weeks, CBD 15.0 mg/kg/day", "value": 2.7},
      {"measurement": "Seizure frequency, atonic", "setting": "Patient 4, 16 weeks, CBD 15.0 mg/kg/day, baseline 20.0", "value": 14.0},
      {"measurement": "Seizure frequency, tonic-clonic", "setting": "Patient 4, 24 weeks, CBD 15.0 mg/kg/day, baseline 10.0", "value": 10.0},
      {"measurement": "Seizure frequency, focal with impairment", "setting": "Patient 4, 24 weeks, CBD 15.0 mg/kg/day", "value": 3.0},
      {"measurement": "Seizure frequency, atonic", "setting": "Patient 4, 24 weeks, CBD 15.0 mg/kg/day, baseline 20.0", "value": 13.0},
      {"measurement": "Reduction in atonic seizures over the treatment period", "setting": "[1]", "value": 35, "unit": "%"},
      {"measurement": "Reduction in focal seizures with impairment over the treatment period", "setting": "[1]", "value": 78.6, "unit": "%"},
      {"measurement": "Seizure frequency, absence", "setting": "[2]", "value": 45.0},
      {"measurement": "Seizure frequency, myoclonic", "setting": "[2]", "value": 75.0},
      {"measurement": "Seizure frequency, tonic-clonic", "setting": "Patient 5, 4 weeks, CBD 20.0 mg/kg/day, baseline 71.0", "value": 75.0},
      {"measurement": "Seizure frequency, atonic", "setting": "Patient 5, 4 weeks, CBD 20.0 mg/kg/day, baseline 748.0", "value": 965.0},
      {"measurement": "Seizure frequency, absence", "setting": "[3]", "value": 0.0},
      {"measurement": "Seizure frequency, myoclonic", "setting": "[3]", "value": 60.0},
      {"measurement": "Seizure frequency, tonic-clonic", "setting": "Patient 5, 8 weeks, CBD 25.0 mg/kg/day, baseline 71.0", "value": 7.0},
      {"measurement": "Seizure frequency, atonic", "setting": "Patient 5, 8 weeks, CBD 25.0 mg/kg/day, baseline 748.0", "value": 8.0},
      {"measurement": "Seizure frequency, absence", "setting": "[4]", "value": 0.0},
      {"measurement": "Seizure frequency, myoclonic", "setting": "[4]", "value": 1.0},
      {"measurement": "Seizure frequency, tonic-clonic", "setting": "Patient 5, 12 weeks, CBD 25.0 mg/kg/day, baseline 71.0", "value": 4.0},
      {"measurement": "Seizure frequency, atonic", "setting": "Patient 5, 12 weeks, CBD 25.0 mg/kg/day, baseline 748.0", "value": 25.0},
      {"measurement": "Seizure frequency, absence", "setting": "[5]", "value": 0.0},
      {"measurement": "Seizure frequency, myoclonic", "setting": "[5]", "value": 0.0},
      {"measurement": "Seizure frequency, tonic-clonic", "setting": "Patient 5, 16 weeks, CBD 25.0 mg/kg/day, baseline 71.0", "value": 10.0},
      {"measurement": "Seizure frequency, atonic", "setting": "Patient 5, 16 weeks, CBD 25.0 mg/kg/day, baseline 748.0", "value": 53.0},
      {"measurement": "Seizure frequency, absence", "setting": "[6]", "value": 0.0},
      {"measurement": "Seizure frequency, myoclonic", "setting": "[6]", "value": 68.0},
      {"measurement": "Seizure frequency, tonic-clonic", "setting": "Patient 5, 24 weeks, CBD 30.0 mg/kg/day, baseline 71.0", "value": 40.0},
      {"measurement": "Seizure frequency, absence", "setting": "[7]", "value": 0.0},
      {"measurement": "Seizure frequency, myoclonic", "setting": "[7]", "value": 129.0},
      {"measurement": "Seizure frequency, tonic-clonic", "setting": "Patient 5, 36 weeks, CBD 40.0 mg/kg/day, baseline 71.0", "value": 76.0},
      {"measurement": "Seizure frequency, atonic", "setting": "Patient 5, 36 weeks, CBD 40.0 mg/kg/day, baseline 748.0", "value": 44.0},
      {"measurement": "Seizure frequency, absence", "setting": "[8]", "value": 0.0},
      {"measurement": "Seizure frequency, myoclonic", "setting": "[8]", "value": 184.0},
      {"measurement": "Seizure frequency, tonic-clonic", "setting": "Patient 5, 60 weeks, CBD 50.0 mg/kg/day, baseline 71.0", "value": 137.0},
      {"measurement": "Seizure frequency, atonic", "setting": "Patient 5, 60 weeks, CBD 50.0 mg/kg/day, baseline 748.0", "value": 45.0},
      {"measurement": "Seizure frequency, absence", "setting": "[9]", "value": 3.0},
      {"measurement": "Seizure frequency, myoclonic", "setting": "[9]", "value": 141.0},
      {"measurement": "Seizure frequency, tonic-clonic", "setting": "Patient 5, 72 weeks, CBD 50.0 mg/kg/day, baseline 71.0", "value": 130.0},
      {"measurement": "Seizure frequency, atonic", "setting": "Patient 5, 72 weeks, CBD 50.0 mg/kg/day, baseline 748.0", "value": 46.3},
      {"measurement": "Seizure frequency, absence", "setting": "[10]", "value": 5.7},
      {"measurement": "Seizure frequency, myoclonic", "setting": "[10]", "value": 81.0},
      {"measurement": "Seizure frequency, tonic-clonic", "setting": "Patient 5, 84 weeks, CBD 30.0 mg/kg/day, baseline 71.0", "value": 77.0},
      {"measurement": "Seizure frequency, atonic", "setting": "Patient 5, 84 weeks, CBD 30.0 mg/kg/day, baseline 748.0", "value": 39.3},
      {"measurement": "Seizure frequency, absence", "setting": "[11]", "value": 8.0},
      {"measurement": "Seizure frequency, myoclonic", "setting": "[11]", "value": 41.0},
      {"measurement": "Seizure frequency, tonic-clonic", "setting": "Patient 5, 96 weeks, CBD 45.0 mg/kg/day, baseline 71.0", "value": 72.0},
      {"measurement": "Seizure frequency, atonic", "setting": "Patient 5, 96 weeks, CBD 45.0 mg/kg/day, baseline 748.0", "value": 97.0},
      {"measurement": "Seizure frequency, absence", "setting": "[12]", "value": 11.0},
      {"measurement": "Seizure frequency, myoclonic", "setting": "[12]", "value": 64.0},
      {"measurement": "Seizure frequency, tonic-clonic", "setting": "Patient 5, 108 weeks, CBD 45.0 mg/kg/day, baseline 71.0", "value": 53.0},
      {"measurement": "Seizure frequency, atonic", "setting": "Patient 5, 108 weeks, CBD 45.0 mg/kg/day, baseline 748.0", "value": 92.0},
      {"measurement": "Seizure frequency, absence", "setting": "[13]", "value": 11.3},
      {"measurement": "Seizure frequency, myoclonic", "setting": "[13]", "value": 53.0},
      {"measurement": "Seizure frequency, tonic-clonic", "setting": "Patient 5, 120 weeks, CBD 45.0 mg/kg/day, baseline 71.0", "value": 44.3},
      {"measurement": "Seizure frequency, atonic", "setting": "Patient 5, 120 weeks, CBD 45.0 mg/kg/day, baseline 748.0", "value": 72.3},
      {"measurement": "Seizure frequency, absence", "setting": "[14]", "value": 18.8},
      {"measurement": "Seizure frequency, myoclonic", "setting": "[14]", "value": 66.4},
      {"measurement": "Seizure frequency, tonic-clonic", "setting": "Patient 5, 132 weeks, CBD 45.0 mg/kg/day, baseline 71.0", "value": 40.4},
      {"measurement": "Seizure frequency, atonic", "setting": "Patient 5, 132 weeks, CBD 45.0 mg/kg/day, baseline 748.0", "value": 128.0},
      {"measurement": "Seizure frequency, absence", "setting": "[15]", "value": 49.6},
      {"measurement": "Seizure frequency, myoclonic", "setting": "[15]", "value": 78.0},
      {"measurement": "Seizure frequency, tonic-clonic", "setting": "Patient 5, 144 weeks, CBD 45.0 mg/kg/day, baseline 71.0", "value": 18.0},
      {"measurement": "Seizure frequency, atonic", "setting": "Patient 5, 144 weeks, CBD 45.0 mg/kg/day, baseline 748.0", "value": 78.4},
      {"measurement": "Reduction in atonic seizures over the treatment period", "setting": "[16]", "value": 89.5, "unit": "%"},
      {"measurement": "Reduction in tonic-clonic seizures over the treatment period", "setting": "[16]", "value": 76.4, "unit": "%"},
      {"measurement": "Seizure frequency, tonic", "setting": "Patient 6, 2 weeks, CBD 5.0 mg/kg/day", "value": 40.0},
      {"measurement": "Seizure frequency, tonic", "setting": "Patient 6, 4 weeks, CBD 10.0 mg/kg/day", "value": 20.0},
      {"measurement": "Seizure frequency, tonic", "setting": "Patient 6, 8 weeks, CBD 20.0 mg/kg/day", "value": 32.0},
      {"measurement": "Seizure frequency, tonic", "setting": "Patient 6, 12 weeks, CBD 25.0 mg/kg/day", "value": 12.0},
      {"measurement": "Seizure frequency, tonic", "setting": "Patient 6, 24 weeks, CBD 25.0 mg/kg/day", "value": 15.2},
      {"measurement": "Seizure frequency, tonic", "setting": "Patient 6, 36 weeks, CBD 25.0 mg/kg/day", "value": 15.2},
      {"measurement": "Seizure frequency, tonic", "setting": "Patient 6, 48 weeks, CBD 25.0 mg/kg/day", "value": 18.0},
      {"measurement": "Seizure frequency, tonic", "setting": "Patient 6, 60 weeks, CBD 25.0 mg/kg/day", "value": 19.2},
      {"measurement": "Reduction in tonic seizures over the treatment period", "setting": "Patient 6, treated for 60 weeks, vs baseline", "value": 20, "unit": "%"},
      {"measurement": "Reductions in seizures over period of treatment, overall", "setting": "all six patients, tonic, tonic-clonic, atonic, myoclonic, absence and focal seizures with impairment", "value": "20-100%"},
      {"measurement": "Benefit in patients with focal seizures with impairment (in words)", "setting": "patients 1 and 4", "value": "significant benefit"},
      {"measurement": "Effect on seizure frequency (in words)", "setting": "six patients, tonic, tonic-clonic, atonic, myoclonic, absence and focal seizures with impairment", "value": "effective in reducing the frequency; also recorded: significantly reduce the number of seizures; also recorded: significant reduction"}
    ]}
  ]
}
